Assay results reported in paper PMC8165695 (Journal of Medicinal Chemistry, 2021).
Where a SMILES comes first, the peptide text is derived from it. [ ]: non-standard residue; d: D form. The star is where a group is joined. Sta = CC(C)C[C@H](N)[C@@H](O)CC(=O)O; Isovaleryl = CC(C)CC(=O)*

Tests used:
[1] = target: HIV-1 Pr drug resistance-associated mutants; details: cited from earlier work
HepG2 = experiment: Cytotoxicity, CellTiter-Glo 2.0 Cell Viability Assay; format: cell-based, human; details: HepG2 cell line; comparators darunavir, amprenavir, indinavir (ref 40)
HIV-1 Pr wild-type = details: cited from earlier work
[2] = system: C. neoformans strains H99 and may1Δ; experiment: Yeast culture activity assay; format: cell-based, Cryptococcus neoformans; details: for terminal culture density of yeast: 48 h, 0.1, 1.0, 10 or 50 μM compound
May1 = target: T1, May1 (Cryptococcus neoformans, UniProt J9VS02); experiment: May1 Ki determination, fluorometric assay with IQ-2 substrate; format: biochemical
T1 sequence (J9VS02 80-434 limits assumed): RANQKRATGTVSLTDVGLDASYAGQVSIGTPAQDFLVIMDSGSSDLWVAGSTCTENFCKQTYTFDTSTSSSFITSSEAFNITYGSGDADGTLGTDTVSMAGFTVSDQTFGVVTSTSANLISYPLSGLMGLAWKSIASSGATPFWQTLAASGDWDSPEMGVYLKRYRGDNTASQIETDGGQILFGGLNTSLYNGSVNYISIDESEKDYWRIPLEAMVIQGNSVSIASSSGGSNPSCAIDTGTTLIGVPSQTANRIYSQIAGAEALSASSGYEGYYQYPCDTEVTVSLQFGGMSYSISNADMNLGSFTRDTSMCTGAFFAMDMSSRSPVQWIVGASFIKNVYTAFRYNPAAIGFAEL

## NC(=O)[C@H](CCc1ccccc1)NC(=O)[C@H](CCC(=O)O)NC(=O)C[C@H](O)[C@H](Cc1ccccc1)NC(=O)OCc1ccccc1 [Compound 13a, (S)-5-(((S)-1-amino-1-oxo-4-phenylbutan-2-yl)amino)-4-((3S,4S)-4-(((benzyloxy)carbonyl)amino)-3-hydroxy-5-phenylpentanamido)-5-oxopentanoic acid]
[1]
  Ki for three drug resistance-associated HIV-1 Pr mutants: 0.024 to 0.32 nM
HepG2
  cytotoxicity compared with clinically used protease inhibitors: on par with or lower than that of clinically used protease inhibitors
HIV-1 Pr wild-type
  inhibition of wild-type HIV-1 Pr (in words): potent, subnanomolar inhibitor
[2]; H99, YNB minimal medium, 48 h, 50 μM
  terminal culture density of yeast at 50 μM: nearly phenocopying the may1Δ mutant
[2]; H99, YNB minimal medium
  terminal culture density of yeast: dose-dependent reductions in terminal culture density
[2]; H99, unbuffered YNB, 50 μM
  culture density during logarithmic phase growth: achieved similar densities to 1b- or DMSO-treated controls during the logarithmic phase growth
[2]; YNB with 50 mM MES, pH 6.5, 50 μM
  saturation density phenotype in buffered medium: eliminated the saturation density phenotype
[2]; may1Δ strain, unbuffered YNB, 50 μM
  culture density of may1Δ yeast: did not further reduce culture densities during either the logarithmic or the stationary phase

## CC(C)CC(=O)N[C@H](C(=O)N[C@H](C(=O)N[C@@H](CC(C)C)[C@@H](O)CC(=O)N[C@@H](C)C(=O)N[C@@H](CC(C)C)[C@@H](O)CC(=O)O)C(C)C)C(C)C [PepA, pepstatin A] (Isovaleryl-VV[Sta]A[Sta]-OH)
May1
  Ki: 1.3 ± 0.1 nM

## CC(C)[C@H](NC(=O)[C@H](CCC(=O)O)NC(=O)C[C@H](O)[C@H](Cc1ccccc1)NC(=O)OCc1ccccc1)C(N)=O [Compound 3a, (S)-5-(((S)-1-amino-3-methyl-1-oxobutan-2-yl)amino)-4-((3S,4S)-4-(((benzyloxy)carbonyl)amino)-3-hydroxy-5-phenylpentanamido)-5-oxopentanoic acid]
[2]; H99, YNB minimal medium
  terminal culture density of yeast: dose-dependent reductions in terminal culture density

## CCCC[C@H](NC(=O)[C@H](CCC(=O)O)NC(=O)C[C@H](O)[C@H](Cc1ccccc1)NC(=O)OCc1ccccc1)C(N)=O [Compound 4a, (S)-5-(((S)-1-amino-1-oxohexan-2-yl)amino)-4-((3S,4S)-4-(((benzyloxy)carbonyl)amino)-3-hydroxy-5-phenylpentanamido)-5-oxopentanoic acid]
[2]; H99, YNB minimal medium
  terminal culture density of yeast: dose-dependent reductions in terminal culture density

## CC(=O)N[C@H](C(=O)N[C@H](C(=O)N[C@@H](CC(C)C)[C@@H](O)CC(=O)N[C@@H](C)C(=O)N[C@@H](CC(C)C)[C@@H](O)CC(=O)O)C(C)C)C(C)C [acetyl pepstatin] (Ac-VV[Sta]A[Sta]-OH)
May1
  Ki: 3.3 ± 0.1 nM
